Results: PubChem BioAssay (NCI)
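Tested at 5 concentrations; 48 h exposure; 96-well plates; endpoints linearly interpolated, else capped at highest concentration. TGI: total growth inhibition.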

Columns and labels:
Assay in all cases: NCI-60 cell line screen, 48 h
COLO 205 colon = test system: COLO 205 colon
HOP-92 NSCLC = test system: HOP-92 NSCLC
LOX IMVI melanoma = test system: LOX IMVI melanoma
M14 melanoma = test system: M14 melanoma
MDA-MB-435 = test system: MDA-MB-435
MDA-N = test system: MDA-N
NCI-H226 lung = test system: NCI-H226 lung
PC-3 prostate = test system: PC-3 prostate
RPMI-8226 leukemia = test system: RPMI-8226 leukemia
SK-MEL-5 melanoma = test system: SK-MEL-5 melanoma
SN12C renal = test system: SN12C renal
UACC-62 melanoma = test system: UACC-62 melanoma

Measured: TGI

CN1CC[C@]2(c3cccc(O)c3)CC(=O)/C(=C/c3ccccc3)[C@@H]1C2
18.1 µM: COLO 205 colon
5.38 µM: MDA-MB-435
7.74 µM: PC-3 prostate
13.6 µM: SN12C renal
31.9 µM: NCI-H226 lung
4.84 µM: RPMI-8226 leukemia
12.1 µM: M14 melanoma
3.94 µM: MDA-N
9.93 µM: HOP-92 NSCLC
4.71 µM: LOX IMVI melanoma
14.7 µM: SK-MEL-5 melanoma

CC(C)(CO)CNc1nc(N)nc(Cl)c1/C=N/O
84.7 µM: HOP-92 NSCLC
18.8 µM: SK-MEL-5 melanoma
not listed: M14 melanoma
> 100 µM: all other assays above

Cn1c2ccccc2c2c(=S)c3ccccc3ccc21
not listed: RPMI-8226 leukemia
> 100 µM: all other assays above

CC(C)(C)N=C(N)NC#N
not listed: NCI-H226 lung
> 100 µM: all other assays above

O=C1C(=Nc2ccc(Nc3ccccc3)cc2)Oc2ccccc21
3.01 µM: COLO 205 colon
8.58 µM: PC-3 prostate
4.62 µM: SN12C renal
4.4 µM: LOX IMVI melanoma
16.8 µM: NCI-H226 lung
10.7 µM: UACC-62 melanoma
7.16 µM: MDA-N
3.45 µM: MDA-MB-435
5.38 µM: M14 melanoma
16.1 µM: SK-MEL-5 melanoma

CO/N=C(/C(=O)OC)c1ccccc1COc1ccccc1C(F)(F)F
25.8 µM: SK-MEL-5 melanoma
50.3 µM: RPMI-8226 leukemia
not listed: LOX IMVI melanoma
> 100 µM: all other assays above

Nc1ncnc2c1ccn2C/C=C/CO
not listed: NCI-H226 lung
> 100 µM: all other assays above

COc1cc(O)c2c(=O)c(OC)c(-c3ccc(OC)c(O)c3)oc2c1
not listed: HOP-92 NSCLC
> 100 µM: all other assays above

CN1CCN(Cc2cc3c(nn2)-c2ccccc2C3=O)CC1
34.3 µM: COLO 205 colon
35.1 µM: SK-MEL-5 melanoma
52.3 µM: MDA-N
50.2 µM: MDA-MB-435
not listed: LOX IMVI melanoma | SN12C renal
> 100 µM: all other assays above

N#CC(c1ccccc1)N(CCOCCOCCN(C(=O)c1ccccc1)C(C#N)c1ccccc1)C(=O)c1ccccc1 (stereo unspecified)
not listed: RPMI-8226 leukemia
> 100 µM: all other assays above

Cn1ncc2c(NCc3ccccc3)ncnc21
not listed: HOP-92 NSCLC | M14 melanoma | PC-3 prostate
> 100 µM: all other assays above

[N-]=[N+]=CC(=O)OC(CCl)CCl
not listed: M14 melanoma
> 100 µM: all other assays above

Cc1ccc(/C=C2/N=C(N/N=C\C(O)C(O)C(O)C(O)CO)NC2=O)cc1 (stereo unspecified)
not listed: UACC-62 melanoma
> 100 µM: all other assays above

C=C1C(=O)[C@@]23CC[C@@H]4[C@@]5(C)CCC[C@@]4(OC5=O)[C@@]2(C)CC[C@@H]1C3
23.5 µM: SN12C renal
57.7 µM: HOP-92 NSCLC
9.15 µM: NCI-H226 lung
3.49 µM: SK-MEL-5 melanoma
5.31 µM: PC-3 prostate
> 100 µM: MDA-N
2.96 µM: LOX IMVI melanoma
3.3 µM: UACC-62 melanoma
13.7 µM: MDA-MB-435

CC(C(=O)COCc1ccccc1)P1(=O)OC(C)(C)CN1C(C)(C)C (stereo unspecified)
not listed: PC-3 prostate
> 100 µM: all other assays above

C=C(C)[C@H]1C2=CC(C(=O)OC)=C(C[C@H](C(=C)C)[C@@H](O)[C@@H](O)C3=C[C@H]1OC3=O)O2
not listed: PC-3 prostate
> 100 µM: all other assays above

CC1=C(C#N)c2nc3ccccc3n2C(=O)C1(C)CCO (stereo unspecified)
not listed: RPMI-8226 leukemia
> 100 µM: all other assays above

CC12c3c4ccc(C=O)c3Oc3ccc(C=O)c(c31)Oc1ccc(C=O)c(c12)O4
not listed: SK-MEL-5 melanoma
> 25 µM: all other assays above

O=c1onc2n1-c1cc(Cl)ccc1C(=S)N1CSCC21 (stereo unspecified)
not listed: HOP-92 NSCLC
> 100 µM: all other assays above

CC(C)C1=CC23CCC4C(C)(C(=O)O)CCCC4(C)C2CC1C1C(=O)N(CCCCCCN2C(=O)C4C5CC6C7(C)CCCC(C)(C(=O)O)C7CCC6(C=C5C(C)C)C4C2=O)C(=O)C13 (stereo unspecified)
26.9 µM: SK-MEL-5 melanoma
36.2 µM: HOP-92 NSCLC
19 µM: PC-3 prostate
> 100 µM: RPMI-8226 leukemia | UACC-62 melanoma
17.8 µM: MDA-MB-435
28.4 µM: MDA-N
27.5 µM: M14 melanoma
32.4 µM: SN12C renal

CSc1csc(-c2ccc(-c3ccc(-c4cc(SC)cs4)s3)s2)c1
not listed: HOP-92 NSCLC
> 100 µM: all other assays above

Clc1sc(Cl)c2c1[C@@H](Cl)C[C@@H]2Br
not listed: NCI-H226 lung | RPMI-8226 leukemia
> 100 µM: all other assays above

COc1cc(C=O)ccc1O
not listed: UACC-62 melanoma
> 100 µM: all other assays above

COC(=O)c1ccccc1CC1Cc2cccc(C)c2C1=O (stereo unspecified)
50.8 µM: MDA-MB-435
71.5 µM: NCI-H226 lung
39.3 µM: COLO 205 colon
37.5 µM: SK-MEL-5 melanoma
77.8 µM: PC-3 prostate
> 100 µM: M14 melanoma | MDA-N | SN12C renal
98.1 µM: UACC-62 melanoma
39.6 µM: LOX IMVI melanoma
80.6 µM: HOP-92 NSCLC

CCOC(=O)/C(C(C)=O)=C(\OC(C)=O)c1ccncc1C(=O)O
not listed: SK-MEL-5 melanoma
> 100 µM: all other assays above

O=C(OCC(Cl)(Cl)Cl)N1CC[C@H](C2CCCCC2)C1
48.7 µM: PC-3 prostate
39 µM: COLO 205 colon
41.1 µM: LOX IMVI melanoma
52.9 µM: UACC-62 melanoma
30 µM: SK-MEL-5 melanoma
39.8 µM: M14 melanoma
> 100 µM: MDA-N | SN12C renal

CCN(CC)c1ccc(/C=C/c2ccnc3ccccc23)cc1
not listed: NCI-H226 lung
> 100 µM: all other assays above

CC(C)(C)c1ccc2c(c1)C#Cc1cc3c(cc1OCCCO2)C#Cc1cc(C(C)(C)C)ccc1OCCCO3
not listed: NCI-H226 lung
> 100 µM: all other assays above

CCOc1c(OC)cc(-c2nc3n(n2)C(=O)C(CC)S3)cc1OC (stereo unspecified)
not listed: HOP-92 NSCLC
> 10 µM: all other assays above

O=C1c2cccc3cccc(c23)C(=O)N1CCCNCCCCNCCCNCCCN1C(=O)c2cccc3cccc(c23)C1=O
1.6 µM: UACC-62 melanoma
1.76 µM: PC-3 prostate
2.37 µM: HOP-92 NSCLC
3.64 µM: M14 melanoma
2.15 µM: NCI-H226 lung
8.35 µM: SK-MEL-5 melanoma
2.11 µM: MDA-N
1.8 µM: SN12C renal
2 µM: MDA-MB-435
